In the NIST ThermoML archive (doi:10.1016/j.tca.2014.07.001):
± gives the expanded uncertainty stated by the source.

Settings: Liquid; for mass density: 101.33 kPa, Vibrating tube method; for vapor or sublimation pressure: Rate of evaporation

CCCCC(=O)Oc1cc(C)cc(OC(=O)CCCC)c1 [3-methyl-5-(pentanoyloxy)phenyl pentanoate]
mass density (278.2 K): 1031.85 ± 0.3 kg/m3 | mass density (298.1 K): 1015.28 ± 0.28 kg/m3 | mass density (318.1 K): 998.841 ± 0.27 kg/m3 | mass density (338.1 K): 982.449 ± 0.27 kg/m3 | mass density (358.1 K): 966.043 ± 0.27 kg/m3 | vapor or sublimation pressure (464 K): 0.708 ± 0.18 kPa | vapor or sublimation pressure (468 K): 0.844 ± 0.22 kPa | vapor or sublimation pressure (472 K): 1.004 ± 0.23 kPa | vapor or sublimation pressure (476 K): 1.19 ± 0.27 kPa | vapor or sublimation pressure (480 K): 1.406 ± 0.32 kPa | vapor or sublimation pressure (484 K): 1.657 ± 0.37 kPa | vapor or sublimation pressure (488 K): 1.948 ± 0.43 kPa | vapor or sublimation pressure (492 K): 2.284 ± 0.5 kPa | vapor or sublimation pressure (496 K): 2.671 ± 0.58 kPa | vapor or sublimation pressure (500 K): 3.116 ± 0.68 kPa | vapor or sublimation pressure (504 K): 3.626 ± 0.78 kPa | vapor or sublimation pressure (508 K): 4.209 ± 0.9 kPa | vapor or sublimation pressure (512 K): 4.875 ± 1 kPa | vapor or sublimation pressure (516 K): 5.633 ± 1.2 kPa | vapor or sublimation pressure (520 K): 6.495 ± 1.4 kPa | vapor or sublimation pressure (524 K): 7.472 ± 1.5 kPa | vapor or sublimation pressure (528 K): 8.579 ± 1.8 kPa | vapor or sublimation pressure (532 K): 9.828 ± 2 kPa | vapor or sublimation pressure (536 K): 11.24 ± 2.2 kPa | vapor or sublimation pressure (540 K): 12.82 ± 2.5 kPa | vapor or sublimation pressure (544 K): 14.6 ± 2.8 kPa | vapor or sublimation pressure (548 K): 16.6 ± 3.1 kPa | vapor or sublimation pressure (552 K): 18.83 ± 3.5 kPa | vapor or sublimation pressure (556 K): 21.33 ± 3.8 kPa | vapor or sublimation pressure (560 K): 24.11 ± 4.3 kPa

CCCCOc1cc(C)cc(OCCCC)c1 [1,3-dibutoxy-5-methylbenzene]
mass density (278.2 K): 955.338 ± 0.095 kg/m3 | mass density (298.1 K): 938.896 ± 0.1 kg/m3 | mass density (318.1 K): 922.519 ± 0.1 kg/m3 | mass density (338.1 K): 906 ± 0.11 kg/m3 | mass density (358.1 K): 889.4 ± 0.12 kg/m3 | vapor or sublimation pressure (421 K): 1.076 ± 0.28 kPa | vapor or sublimation pressure (425 K): 1.286 ± 0.33 kPa | vapor or sublimation pressure (429 K): 1.533 ± 0.36 kPa | vapor or sublimation pressure (433 K): 1.821 ± 0.42 kPa | vapor or sublimation pressure (437 K): 2.156 ± 0.49 kPa | vapor or sublimation pressure (441 K): 2.545 ± 0.57 kPa | vapor or sublimation pressure (445 K): 2.995 ± 0.67 kPa | vapor or sublimation pressure (449 K): 3.515 ± 0.78 kPa | vapor or sublimation pressure (453 K): 4.114 ± 0.9 kPa | vapor or sublimation pressure (457 K): 4.801 ± 1 kPa | vapor or sublimation pressure (461 K): 5.588 ± 1.2 kPa | vapor or sublimation pressure (465 K): 6.487 ± 1.4 kPa | vapor or sublimation pressure (469 K): 7.512 ± 1.6 kPa | vapor or sublimation pressure (473 K): 8.677 ± 1.8 kPa | vapor or sublimation pressure (477 K): 9.998 ± 2.1 kPa | vapor or sublimation pressure (481 K): 11.49 ± 2.3 kPa | vapor or sublimation pressure (485 K): 13.18 ± 2.6 kPa | vapor or sublimation pressure (489 K): 15.09 ± 2.9 kPa | vapor or sublimation pressure (493 K): 17.23 ± 3.3 kPa | vapor or sublimation pressure (497 K): 19.63 ± 3.7 kPa | vapor or sublimation pressure (501 K): 22.32 ± 4.2 kPa | vapor or sublimation pressure (505 K): 25.32 ± 4.8 kPa | vapor or sublimation pressure (509 K): 28.68 ± 5 kPa | vapor or sublimation pressure (513 K): 32.42 ± 5.7 kPa | vapor or sublimation pressure (517 K): 34.44 ± 5.6 kPa

Cc1cc(OC(C)C)cc(OC(C)C)c1 [1-methyl-3,5-bis(propan-2-yloxy)benzene]
mass density (283.2 K): 963.279 ± 1.8 kg/m3 | mass density (303.2 K): 945.753 ± 1.7 kg/m3 | mass density (323.2 K): 928.213 ± 1.7 kg/m3 | mass density (343.2 K): 910.635 ± 1.6 kg/m3 | mass density (363.2 K): 892.968 ± 1.6 kg/m3 | vapor or sublimation pressure (419 K): 2.389 ± 0.58 kPa | vapor or sublimation pressure (422 K): 2.713 ± 0.66 kPa | vapor or sublimation pressure (425 K): 3.074 ± 0.69 kPa | vapor or sublimation pressure (428 K): 3.478 ± 0.78 kPa | vapor or sublimation pressure (431 K): 3.928 ± 0.87 kPa | vapor or sublimation pressure (434 K): 4.428 ± 0.98 kPa | vapor or sublimation pressure (437 K): 4.984 ± 1.1 kPa | vapor or sublimation pressure (440 K): 5.601 ± 1.2 kPa | vapor or sublimation pressure (443 K): 6.285 ± 1.4 kPa | vapor or sublimation pressure (446 K): 7.041 ± 1.5 kPa | vapor or sublimation pressure (449 K): 7.876 ± 1.7 kPa | vapor or sublimation pressure (452 K): 8.796 ± 1.9 kPa | vapor or sublimation pressure (455 K): 9.811 ± 2.1 kPa | vapor or sublimation pressure (458 K): 10.93 ± 2.2 kPa | vapor or sublimation pressure (461 K): 12.15 ± 2.4 kPa | vapor or sublimation pressure (464 K): 13.49 ± 2.7 kPa | vapor or sublimation pressure (467 K): 14.97 ± 2.9 kPa | vapor or sublimation pressure (470 K): 16.58 ± 3.2 kPa | vapor or sublimation pressure (473 K): 18.34 ± 3.5 kPa | vapor or sublimation pressure (476 K): 20.26 ± 3.7 kPa | vapor or sublimation pressure (479 K): 22.36 ± 4.1 kPa

Cc1cc(OCCc2ccccc2)cc(OCCc2ccccc2)c1 [1-methyl-3,5-bis(2-phenylethoxy)benzene]
mass density (283.2 K): 921.532 ± 0.07 kg/m3 | mass density (303.2 K): 907.265 ± 0.076 kg/m3 | mass density (323.2 K): 893.041 ± 0.081 kg/m3 | mass density (343.2 K): 878.854 ± 0.087 kg/m3 | mass density (363.2 K): 864.445 ± 0.093 kg/m3 | vapor or sublimation pressure (507 K): 1.602 ± 0.37 kPa | vapor or sublimation pressure (510 K): 1.802 ± 0.42 kPa | vapor or sublimation pressure (513 K): 2.024 ± 0.44 kPa | vapor or sublimation pressure (516 K): 2.271 ± 0.49 kPa | vapor or sublimation pressure (519 K): 2.543 ± 0.55 kPa | vapor or sublimation pressure (522 K): 2.845 ± 0.61 kPa | vapor or sublimation pressure (525 K): 3.179 ± 0.68 kPa | vapor or sublimation pressure (528 K): 3.548 ± 0.75 kPa | vapor or sublimation pressure (531 K): 3.954 ± 0.83 kPa | vapor or sublimation pressure (534 K): 4.401 ± 0.92 kPa | vapor or sublimation pressure (537 K): 4.893 ± 1 kPa | vapor or sublimation pressure (540 K): 5.434 ± 1.1 kPa | vapor or sublimation pressure (543 K): 6.027 ± 1.2 kPa | vapor or sublimation pressure (546 K): 6.678 ± 1.4 kPa | vapor or sublimation pressure (549 K): 7.39 ± 1.5 kPa | vapor or sublimation pressure (552 K): 8.17 ± 1.7 kPa | vapor or sublimation pressure (555 K): 9.022 ± 1.8 kPa | vapor or sublimation pressure (558 K): 9.952 ± 2 kPa | vapor or sublimation pressure (561 K): 10.97 ± 2.1 kPa | vapor or sublimation pressure (564 K): 12.07 ± 2.3 kPa | vapor or sublimation pressure (567 K): 13.28 ± 2.4 kPa | vapor or sublimation pressure (570 K): 14.59 ± 2.6 kPa | vapor or sublimation pressure (573 K): 15.52 ± 2.6 kPa

Cc1cc(OCC(C)C)cc(OCC(C)C)c1 [1-methyl-3,5-bis(2-methylpropoxy)benzene]
mass density (328.2 K): 908.941 ± 0.083 kg/m3 | mass density (338.2 K): 901.02 ± 0.086 kg/m3 | mass density (348.2 K): 893.071 ± 0.089 kg/m3 | mass density (358.2 K): 885.087 ± 0.092 kg/m3 | vapor or sublimation pressure (446 K): 2.406 ± 0.59 kPa | vapor or sublimation pressure (449 K): 2.737 ± 0.67 kPa | vapor or sublimation pressure (452 K): 3.108 ± 0.71 kPa | vapor or sublimation pressure (455 K): 3.524 ± 0.8 kPa | vapor or sublimation pressure (458 K): 3.989 ± 0.9 kPa | vapor or sublimation pressure (461 K): 4.508 ± 1 kPa | vapor or sublimation pressure (464 K): 5.086 ± 1.1 kPa | vapor or sublimation pressure (467 K): 5.729 ± 1.3 kPa | vapor or sublimation pressure (470 K): 6.445 ± 1.4 kPa | vapor or sublimation pressure (473 K): 7.238 ± 1.6 kPa | vapor or sublimation pressure (476 K): 8.118 ± 1.8 kPa | vapor or sublimation pressure (479 K): 9.091 ± 1.9 kPa | vapor or sublimation pressure (482 K): 10.17 ± 2.1 kPa | vapor or sublimation pressure (485 K): 11.35 ± 2.3 kPa | vapor or sublimation pressure (488 K): 12.66 ± 2.5 kPa | vapor or sublimation pressure (491 K): 14.1 ± 2.8 kPa | vapor or sublimation pressure (494 K): 15.69 ± 3.1 kPa | vapor or sublimation pressure (497 K): 17.43 ± 3.4 kPa | vapor or sublimation pressure (500 K): 19.33 ± 3.8 kPa | vapor or sublimation pressure (503 K): 21.42 ± 4.2 kPa | vapor or sublimation pressure (506 K): 23.71 ± 4.4 kPa | vapor or sublimation pressure (509 K): 26.21 ± 4.8 kPa

Cc1cc(OC(=O)C(C)(C)C)cc(OC(=O)C(C)(C)C)c1
mass density (323.1 K): 977.806 ± 0.088 kg/m3 | mass density (333.1 K): 969.344 ± 0.091 kg/m3 | mass density (343.1 K): 960.889 ± 0.093 kg/m3 | mass density (353.1 K): 952.427 ± 0.096 kg/m3 | mass density (363.1 K): 943.951 ± 0.099 kg/m3 | vapor or sublimation pressure (456 K): 1.816 ± 0.43 kPa | vapor or sublimation pressure (460 K): 2.127 ± 0.5 kPa | vapor or sublimation pressure (464 K): 2.485 ± 0.54 kPa | vapor or sublimation pressure (468 K): 2.894 ± 0.62 kPa | vapor or sublimation pressure (472 K): 3.363 ± 0.72 kPa | vapor or sublimation pressure (476 K): 3.898 ± 0.83 kPa | vapor or sublimation pressure (480 K): 4.506 ± 0.95 kPa | vapor or sublimation pressure (484 K): 5.197 ± 1.1 kPa | vapor or sublimation pressure (488 K): 5.98 ± 1.2 kPa | vapor or sublimation pressure (492 K): 6.865 ± 1.4 kPa | vapor or sublimation pressure (496 K): 7.864 ± 1.6 kPa | vapor or sublimation pressure (500 K): 8.989 ± 1.8 kPa | vapor or sublimation pressure (504 K): 10.25 ± 2 kPa | vapor or sublimation pressure (508 K): 11.67 ± 2.2 kPa | vapor or sublimation pressure (512 K): 13.26 ± 2.5 kPa | vapor or sublimation pressure (516 K): 15.03 ± 2.8 kPa | vapor or sublimation pressure (520 K): 17 ± 3.2 kPa | vapor or sublimation pressure (524 K): 19.2 ± 3.5 kPa | vapor or sublimation pressure (528 K): 21.65 ± 3.9 kPa | vapor or sublimation pressure (532 K): 24.36 ± 4.3 kPa | vapor or sublimation pressure (536 K): 26.58 ± 4.4 kPa
